What was measured:
Format in all cases: functional, cell-based
HeLa = experiment: Cytotoxicity against human HeLa cells assessed as reduction in cell viability incubated for 72 hrs by MTT assay
SK-OV-3 = experiment: Cytotoxicity against human SKOV3 cells assessed as reduction in cell viability incubated for 72 hrs by MTT assay; details: SK-OV-3, 72 h
A549 = experiment: Cytotoxicity against human A549 cells assessed as reduction in cell viability incubated for 72 hrs by MTT assay; details: A549, 72 h

SMILES | IC50 (HeLa) | IC50 (SK-OV-3) | IC50 (A549)
CC[C@H]1CN2CCc3cc(OC)c(OC)cc3[C@@H]2C[C@@H]1C[C@H]1NCCc2c1[nH]c1ccccc21 | 0.1 µM | 3 nM | –
CC[C@H]1CN2CCc3c(cc(OC)c(OC)c3O)[C@@H]2C[C@@H]1C[C@H]1NCCc2c1[nH]c1ccccc21 | 8.2 µM | 200 nM | 3000 nM
CC[C@H]1CN2CCc3c(cc(OC)c(OC)c3O)[C@@H]2C[C@@H]1C/C=[N+](/[O-])CC | > 10 µM | 5200 nM | > 10000 nM
COc1cc2c(cc1O)[C@@H]1C[C@@H]3CC=CC[C@H]3CN1CC2 | 9.2 µM | 13900 nM | 12500 nM
CC[C@H]1CN2CCc3cc(OC)c(O)cc3[C@@H]2C[C@@H]1CCO | 0.01 µM | 60 nM | 200 nM
CC[C@H]1CN2CCc3cc(OC)c(OC)cc3[C@@H]2C[C@@H]1CCO | 1.2 µM | 100 nM | 300 nM
CC[C@H]1CN2CCc3c(cc(OC)c(OC)c3O)[C@@H]2C[C@@H]1CCO | 5.3 µM | 3600 nM | 2100 nM
CO[C@@H]1C=C[C@@]23c4cc5c(cc4CN(C[C@@H]2O)[C@H]3C1)OCO5 [(+)-HAEMANTHAMINE] | 1.3 µM | 3700 nM | 3000 nM
CC[C@H]1CN2CCc3cc(OC)c(OC)cc3[C@@H]2C[C@@H]1C[C@H]1NCCc2cc(O)c(OC)cc21 [CEPHAELINE] | 7.6 µM | 100 nM | 3000 nM
CC[C@H]1CN2CCc3cc(OC)c(OC)cc3[C@@H]2C[C@@H]1C[C@@H]1NCCc2cc(O)c(OC)cc21 [ISOCEPHAELINE] | 9.4 µM | 3900 nM | 2700 nM
CC[C@H]1CN2CCc3cc(OC)c(OC)cc3[C@@H]2C[C@@H]1C[C@H]1NCCc2c1[nH]c1ccc(O)cc21 [TUBULOSINE] | > 10 µM | 400 nM | 2100 nM
